Test results taken from patent publication US20140163061A1, “Methods For Reducing Blood Pressure” (FibroGen, Inc., priority 2008, published 2014).

Assays:
[1] = test system: Nx rats (5/6 nephrectomy, hypertensive chronic kidney disease); assay: Rat remnant kidney model (5/6 nephrectomy) of CKD, tail-cuff systolic blood pressure, Example 3; assay type: in vivo; settings: mean±SEM, p<0.05 vs vehicle-treated Nx rats (195.7±24.4)
Experimental: (§1) A characteristic pathophysiology found in the uremic chronic kidney disease (CKD) population is hypertension. […] (Priyadarshi et al. (2002) Kidney Int 61:542-546; Coleman et al. (2006) Proc Natl Acad Sci USA 103:5965-5970.) The surgical procedure used to generate the rat remnant kidney was performed according to modification of the procedure described by Priyadarshi et al. (supra) or according to modification of the procedure described by Tanaka et al. (2005, Lab Invest 85:1292-1307). Separate studies used either male Sprague Dawley rats (280-300 g) or female Wistar rats (220-250 g).
Animals were divided into two groups of which one group (sham) underwent sham surgery and the other group (Nx) was subjected to 5/6 nephrectomy as follows. […] Animal body weight and mortality were closely monitored.
Starting 35 days after surgery, Nx and sham animals were randomly divided into groups and treated with either vehicle or compound A. Compound was dosed three times per week by oral gavage at 20 or 40 mg/kg compound per dose. Blood pressure (BP) was measured using a Kent XBP1000 system (Kent Scientific Corp., Torrington, Conn.) or a Muromachi tail-cuff blood pressure system (Muromachi Kikai Co., Ltd., Tokyo, Japan), both having volume/pressure recording technology and used according to the manufacturer's instruction. […]

[2] = test system: Nx rats (5/6 nephrectomy, hypertensive chronic kidney disease); assay: Nx rats treated with various HIF prolyl hydroxylase inhibitors, change in systolic blood pressure after four weeks, Example 4; assay type: in vivo, rat; settings: 40 mg/kg oral
Experimental: as §1
Animals were divided into two groups of which one group (sham) underwent sham surgery and the other group (Nx) was subjected to 5/6 nephrectomy as follows. Animals were anesthetized under isoflurane, and a midline abdominal incision was made, followed by blunt dissection of the renal pedicles. Two or three branches of the left renal artery were ligated to infarct two thirds of the left kidney, while the right kidney underwent simultaneous nephrectomy. The infarct was verified by observing the change in kidney color. Animal body temperature was maintained constant, and warm (˜37° C.) saline (1.0 mL) was administered directly into the abdomen. Thereafter, the incision was sutured and the animal was allowed to recover and have free access to regular food and water. Animal body weight and mortality were closely monitored.
Starting 35 days after surgery, Nx and sham animals were randomly divided into groups and treated with either vehicle or compound A. Compound was dosed three times per week by oral gavage at 20 or 40 mg/kg compound per dose. Blood pressure (BP) was measured using a Kent XBP1000 system (Kent Scientific Corp., Torrington, Conn.) or a Muromachi tail-cuff blood pressure system (Muromachi Kikai Co., Ltd., Tokyo, Japan), both having volume/pressure recording technology and used according to the manufacturer's instruction. Rats were slightly warmed under a lamp and conditioned carefully before the measurement. BP was recorded as the mean value of 3 separate measurements obtained at each session and reported herein as mean±SEM. Results are compared using 1-way analysis of variance (ANOVA) and Student-Newman-Keuls method (SigmaStat, SPSS Science, Chicago, Ill.).
In another series of experiments, rats subjected to 5/6 nephrectomy were treated 35 days after surgery according to the dosing schedule described in Example 3 above with a HIF prolyl hydroxylase inhibitor. Individual compound selected from the group consisting of compounds A and C-K were administered by oral gavage at 8, 20, 30, or 40 mg/kg (see Table 1 and Table 2). Systolic blood pressure was recorded at day 35 (baseline) and again immediately following the last dose of compound. Table 1 and Table 2 show changes in systolic blood pressure following four weeks of oral administration of various compounds of the present invention to Nx rats.

[3] = test system: human subjects with chronic kidney disease; assay: Blood pressure in human CKD subjects over a four week period, weekly readings, Example 6; assay type: in vivo
Experimental: Hypertension is a common condition in patients with chronic kidney disease. (Agarwal et al. (2005) Hypertension 46:514-520.) The effect of a compound of the present invention on blood pressure in anemic and non-anemic human subjects with advanced stage chronic kidney disease was examined. All study subjects had chronic kidney disease (CKD), defined as having a glomerular filtration rate (GFR)<59 ml/min. Some of these CKD subjects also had anemia, defined as having hemoglobin (Hb) levels<11 g/dL. Subjects were orally administered compound A or a placebo two or three times per week for four weeks. Blood pressure readings (i.e. systolic, diastolic, and mean arterial pressure) were taken at various times with a sphygmomanometer according to standard assessments. In another series of experiments, the effects of a medicament of the present invention on blood pressure in anemic and non-anemic subjects with chronic kidney disease were determined over a four week period. All subjects were orally administered compound A or a placebo two or three-times per week for four weeks and blood pressure readings were taken weekly. Table 6, Table 7, and Table 8 below show weekly changes in mean arterial pressure (MAP), systolic blood pressure (SBP), and diastolic blood pressure (DBP) following oral administration of compound A to human CKD subjects.

## Cc1nc(C(=O)NCC(=O)O)c(O)c2ccc(Oc3ccccc3)cc12 [A, [(4-hydroxy-1-methyl-7-phenoxy-isoquinoline-3-carbonyl)-amino]-acetic acid]
[1]; 20 mg/kg oral gavage three times per week
  systolic blood pressure (SBP): 164.7±26.7 mmHg
[1]; 40 mg/kg oral gavage three times per week
  systolic blood pressure (SBP): 155.4±42.9 mmHg
[2]
  SBP (mmHg) Change from Baseline: −31.10 mmHg
  SBP (mmHg) Change from Vehicle: −40.31 mmHg
[3]; All Subjects, Week 1
  Mean change from Baseline Diastolic BP (mmHg): −3.66 mmHg
  Mean change from Baseline MAP (mmHg): −4.28 mmHg
  Mean change from Baseline Systolic BP (mmHg): −5.45 mmHg
[3]; All Subjects, Week 2
  Mean change from Baseline Diastolic BP (mmHg): −3.37 mmHg
  Mean change from Baseline MAP (mmHg): −5.44 mmHg
  Mean change from Baseline Systolic BP (mmHg): −9.47 mmHg
[3]; All Subjects, Week 3
  Mean change from Baseline Diastolic BP (mmHg): −1.53 mmHg
  Mean change from Baseline MAP (mmHg): −4.03 mmHg
  Mean change from Baseline Systolic BP (mmHg): −8.97 mmHg
[3]; All Subjects, Week 4
  Mean change from Baseline Diastolic BP (mmHg): −1.54 mmHg
  Mean change from Baseline MAP (mmHg): −2.85 mmHg
  Mean change from Baseline Systolic BP (mmHg): −5.54 mmHg
[3]; Anemic, Week 1
  Mean change from Baseline Diastolic BP (mmHg): −4.43 mmHg
  Mean change from Baseline MAP (mmHg): −4.57 mmHg
  Mean change from Baseline Systolic BP (mmHg): −4.80 mmHg
[3]; Anemic, Week 2
  Mean change from Baseline Diastolic BP (mmHg): −3.77 mmHg
  Mean change from Baseline MAP (mmHg): −6.13 mmHg
  Mean change from Baseline Systolic BP (mmHg): −10.77 mmHg
[3]; Anemic, Week 3
  Mean change from Baseline Diastolic BP (mmHg): −2.50 mmHg
  Mean change from Baseline MAP (mmHg): −5.47 mmHg
  Mean change from Baseline Systolic BP (mmHg): −11.40 mmHg
[3]; Anemic, Week 4
  Mean change from Baseline Diastolic BP (mmHg): −1.13 mmHg
  Mean change from Baseline MAP (mmHg): −3.08 mmHg
  Mean change from Baseline Systolic BP (mmHg): −7.25 mmHg
[3]; Non-Anemic, Week 1
  Mean change from Baseline Diastolic BP (mmHg): −2.00 mmHg
  Mean change from Baseline MAP (mmHg): −3.67 mmHg
  Mean change from Baseline Systolic BP (mmHg): −6.86 mmHg
[3]; Non-Anemic, Week 2
  Mean change from Baseline Diastolic BP (mmHg): −2.50 mmHg
  Mean change from Baseline MAP (mmHg): −3.95 mmHg
  Mean change from Baseline Systolic BP (mmHg): −6.67 mmHg
[3]; Non-Anemic, Week 3
  Mean change from Baseline Diastolic BP (mmHg): 0.40 mmHg
  Mean change from Baseline MAP (mmHg): −1.14 mmHg
  Mean change from Baseline Systolic BP (mmHg): −4.10 mmHg
[3]; Non-Anemic, Week 4
  Mean change from Baseline Diastolic BP (mmHg): −2.20 mmHg
  Mean change from Baseline MAP (mmHg): −2.48 mmHg
  Mean change from Baseline Systolic BP (mmHg): −2.80 mmHg
